# System: Black Sigatoka on Bananas
# Test: Assessment of disease in field plots: Black Sigatoka on banana plants, natural inoculation
# Assay type: in vivo, Mycosphaerella fijiensis
# Conditions: for Disease Severity (AUDPC): 61 Day After Application, Area Under Disease Progression Curve, banana field plots; for Total Number of Functional Leaves: bananas
# Description: Aliquots of a 10% SC formulation of Compound I were diluted into water and mixed with Spraytex CT mineral oil (7 L/Ha) to achieve active ingredient application rates of 50, 100, 150, 200, 300 & 400 g a.i./Ha. These treatments were delivered to banana plants in field plots at an application volume of 23 L/Ha, using a Solo back-pack pump sprayer fitted with a Micronair AU8000 atomizer. A total of five applications were made at 10 day intervals. Experimental design was based on a randomized complete block, and 4 replications. Disease symptoms resulted from natural inoculation and epidemic development. Total experimental plot size was 96 m^2. Efficacy was determined by both percent visual infection and the number of functional leaves.
structure (smiles),measurement,setting,value
COc1ccnc(C(=O)N[C@H]2COC(=O)[C@H](Cc3ccccc3)[C@@H](OC(=O)C(C)C)[C@H](C)OC2=O)c1OCOC(=O)C(C)C [Compound I],Disease Severity (AUDPC),Compound I 50 ppm,29
same,Disease Severity (AUDPC),Compound I 100 ppm,34
same,Disease Severity (AUDPC),Compound I 150 ppm,29
same,Disease Severity (AUDPC),Compound I 200 ppm,28
same,Disease Severity (AUDPC),Compound I 300 ppm,35
same,Total Number of Functional Leaves,"Rate 50 g ai/ha, Week 10",12.8
same,Total Number of Functional Leaves,"Rate 50 g ai/ha, Week 13",13.0
same,Total Number of Functional Leaves,"Rate 50 g ai/ha, Week 15",14.7
same,Total Number of Functional Leaves,"Rate 100 g ai/ha, Week 10",9.3
same,Total Number of Functional Leaves,"Rate 100 g ai/ha, Week 13",12.7
same,Total Number of Functional Leaves,"Rate 100 g ai/ha, Week 15",14.1
same,Total Number of Functional Leaves,"Rate 200 g ai/ha, Week 10",8.6
same,Total Number of Functional Leaves,"Rate 200 g ai/ha, Week 13",12.3
same,Total Number of Functional Leaves,"Rate 200 g ai/ha, Week 15",14.0
same,Total Number of Functional Leaves,"Rate 400 g ai/ha, Week 10",8.7
same,Total Number of Functional Leaves,"Rate 400 g ai/ha, Week 13",12.7
same,Total Number of Functional Leaves,"Rate 400 g ai/ha, Week 15",14.0
